Experimental data taken from patent US20260151403A1, “NEK7 DEGRADERS AND METHODS OF USE THEREOF” (Captor Therapeutics S.A., priority 2022, published 2026).

Tests used:
[1] = target: T1, [NEK7]-[compound of formula (I)]-[CRBN/DDB1] complex (Homo sapiens, UniProt Q8TDX7+Q96SW2); assay: AlphaLISA dose response ternary complex formation assay; format: binding; details: 1 μM compound, normalized to maximum signal of Compound 2 (positive control) and DMSO background; for activation at 1 µM: read-out: Normalized AlphaLISA ternary complex average signal at 1 μM molecule
T1 sequence (Q8TDX7 whole entry): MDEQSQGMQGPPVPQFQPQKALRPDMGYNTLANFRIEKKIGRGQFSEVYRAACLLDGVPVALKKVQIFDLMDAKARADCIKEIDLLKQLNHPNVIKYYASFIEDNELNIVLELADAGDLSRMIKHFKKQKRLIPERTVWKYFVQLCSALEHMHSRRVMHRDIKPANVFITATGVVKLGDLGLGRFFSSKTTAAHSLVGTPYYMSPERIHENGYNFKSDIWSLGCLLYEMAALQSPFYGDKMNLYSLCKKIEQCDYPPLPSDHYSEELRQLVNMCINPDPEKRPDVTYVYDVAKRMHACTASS
T1 sequence (Q96SW2 whole entry): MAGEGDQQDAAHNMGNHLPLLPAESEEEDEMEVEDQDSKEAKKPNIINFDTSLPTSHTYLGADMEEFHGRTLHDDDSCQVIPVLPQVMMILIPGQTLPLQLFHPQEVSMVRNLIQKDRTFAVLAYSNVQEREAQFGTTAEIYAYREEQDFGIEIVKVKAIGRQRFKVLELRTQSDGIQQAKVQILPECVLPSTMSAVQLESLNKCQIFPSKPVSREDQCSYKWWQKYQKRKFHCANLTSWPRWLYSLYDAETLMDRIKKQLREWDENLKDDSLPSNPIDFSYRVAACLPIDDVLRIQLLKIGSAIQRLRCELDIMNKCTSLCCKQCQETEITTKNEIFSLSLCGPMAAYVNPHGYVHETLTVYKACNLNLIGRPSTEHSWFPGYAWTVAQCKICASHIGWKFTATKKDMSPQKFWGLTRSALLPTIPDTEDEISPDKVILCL
T1 sequence (Q16531 whole entry partner): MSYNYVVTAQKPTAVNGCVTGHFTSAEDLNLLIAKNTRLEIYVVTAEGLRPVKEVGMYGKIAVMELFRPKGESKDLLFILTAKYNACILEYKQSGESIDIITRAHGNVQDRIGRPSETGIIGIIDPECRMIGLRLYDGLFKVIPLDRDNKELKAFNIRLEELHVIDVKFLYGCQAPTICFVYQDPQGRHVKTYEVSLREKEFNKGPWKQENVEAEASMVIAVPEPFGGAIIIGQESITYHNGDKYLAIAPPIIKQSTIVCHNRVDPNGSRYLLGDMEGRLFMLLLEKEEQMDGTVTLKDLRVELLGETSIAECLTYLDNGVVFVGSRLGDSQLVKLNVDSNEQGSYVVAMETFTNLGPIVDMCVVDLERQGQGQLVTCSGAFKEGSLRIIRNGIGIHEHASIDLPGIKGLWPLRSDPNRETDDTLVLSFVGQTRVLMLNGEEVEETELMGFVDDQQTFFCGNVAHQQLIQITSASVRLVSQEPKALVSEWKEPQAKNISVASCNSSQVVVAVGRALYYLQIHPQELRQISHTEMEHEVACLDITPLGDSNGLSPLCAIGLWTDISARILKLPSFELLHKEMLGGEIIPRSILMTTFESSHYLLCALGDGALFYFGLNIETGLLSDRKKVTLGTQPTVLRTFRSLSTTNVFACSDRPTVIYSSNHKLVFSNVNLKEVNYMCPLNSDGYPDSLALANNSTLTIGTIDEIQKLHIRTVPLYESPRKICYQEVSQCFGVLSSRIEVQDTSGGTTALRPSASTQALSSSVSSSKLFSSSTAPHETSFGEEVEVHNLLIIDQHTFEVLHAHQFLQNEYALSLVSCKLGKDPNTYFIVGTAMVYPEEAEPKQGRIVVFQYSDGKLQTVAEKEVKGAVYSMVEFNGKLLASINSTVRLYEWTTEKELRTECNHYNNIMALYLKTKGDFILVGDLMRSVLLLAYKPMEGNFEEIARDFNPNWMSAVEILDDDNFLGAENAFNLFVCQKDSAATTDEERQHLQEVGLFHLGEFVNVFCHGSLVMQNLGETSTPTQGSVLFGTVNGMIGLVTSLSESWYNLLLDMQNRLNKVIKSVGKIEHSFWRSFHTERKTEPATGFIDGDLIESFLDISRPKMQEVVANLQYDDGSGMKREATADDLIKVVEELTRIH
Experimental: The effect of the molecular glue compounds of the invention on the formation of a ternary complex composed of [NEK7]-[compound of formula (I)]-[CRBN/DDB1] was investigated with two methods: AlphaLISA dose response assay or HTRF ternary complex assay.
Two types of protein solution were prepared: • 200 nM biotinylated NEK7, 40 μg/ml AlphaScreen Streptavidin-coated Donor Beads in HBS (10 mM HEPES, 150 mM NaCL, pH 7.4) buffer with 0.1% Tween-20 and 1 mM DTT, • 200 nM 6×His-CRBN/Strep-DDB1, 40 μg/ml AlphaLISA Anti-6×His Acceptor beads in HBS buffer with 0.1% Tween-20 and 1 mM DTT.
The prepared solutions were incubated at room temperature for 30 min and then the solution containing the donor beads was mixed with the solution containing the acceptor beads.
The tested compounds were dispensed onto a white 384-well AlphaPlate 384 SW. DMSO was backfilled to all wells, resulting in a final DMSO content of 2%. Wells containing only DMSO served as background. Next, 10 μl of solution with donor and acceptor beads was added to the wells.
The plate was sealed with transparent film and shaken using a VibroTurbulator for 60 sec at room temperature, level 3. The plate was then spun down shortly (10 s, 1000 rcf, room temperature) and incubated at 25° C. for 30 min.
The read-out was performed with PerkinElmer Enspire Multimode Plate Reader (method for AlphaLISA 384-well low volume, Filterset: λexc=680 nm, λem=615 nm).
The results were analyzed as follows: • 1) an average of luminescence for background signal was calculated and used as a negative control; • 2) average of the maximum measured luminescence for Compound 2 was calculated and used as an internal positive control; • 3) raw luminescence values were normalized against positive and negative controls; • 4) Normalized responses to Compound 2 were determined.

[2] = target: T1, [NEK7]-[compound of formula (I)]-[CRBN/DDB1] complex; assay: HTRF ternary complex assay; format: binding; details: dose-response, 180 min at 25° C.; read-out: HTRF ternary complex Average pEC50 by molecule (converted)
Experimental: The effect of the molecular glue compounds of the invention on the formation of a ternary complex composed of [NEK7]-[compound of formula (I)]-[CRBN/DDB1] was investigated.
Mix solution of proteins and reagents was prepared: • 24 nM NEK7, 52.8 nM 6×His-CRBN/Strep-DDB1, 3 nM of Streptavidin-Eu cryptate […] and 6.67 nM of Anti-6×his-d2 […] was prepared in PPI Europium detection buffer (Cisbio) with 1 mM DTT.
The tested compounds in dose-response were dispensed onto a white 384-well low volume plate (Greiner, 784075). DMSO was backfilled to all wells, resulting in a final DMSO content of 0.5%. Wells containing only DMSO served as background.
The plate was sealed with transparent film and shaken using a VibroTurbulator for 60 sec at level 3.
The plate was then spun down shortly (10 s, 1000 rcf) and incubated at 25° C. for 180 min.
The read-out was performed with plate reader (Pherastar, BMG Labtech) in time resolved fluorescence mode. Filterset: TR 337 665 620.
The results were analyzed as follows: • 1) an average of fluorescence for background signal was calculated and used as a negative control; • 2) raw fluorescence values for tested compounds were normalized against negative controls; • 3) saturation curve was fitted to specific binding with Hill slope model; • 4) EC50 and pEC50 values were determined.

NEK7-HiBiT protein = NEK7-HiBiT protein (Homo sapiens, UniProt Q8TDX7); assay: NEK7-HiBiT degradation assay (Nano-Glo HiBiT Lytic Assay) in HEK293 NEK7-HiBiT cells; format: cell-based; details: 24 h, conc. 0.1, 1 and 10 μM tested, concentration of the table values not stated, mean of 3 technical replicates
Chain of NEK7-HiBiT protein (Q8TDX7 whole entry): as the sequence (Q8TDX7 whole entry) above
Chain of NEK7-HiBiT protein (Q96SW2 whole entry, further chain): as the sequence (Q96SW2 whole entry) above
Chain of NEK7-HiBiT protein (Q16531 whole entry partner): as the sequence (Q16531 whole entry partner) above
Experimental: HEK293 NEK7-HiBiT cells were generated using CRISPR-Cas9 system. HEK293 cells were transformed with pSpCas9-BB-2A-Puro v2.0 plasmid carrying gRNA targeting the N-terminus of NEK7 and ssODN template containing the HiBiT tag sequence with flanking homology sequences. Neon Transfection System (Thermo Fisher Scientific) was used for electroporation. HEK293 NEK7-HiBiT cells were cultured with DMEM Glutamax (Gibco) supplemented with 10% heat inactivated FBS (Gibco). After transfection the culture medium was changed to DMEM Glutamax with 10% heat-inactivated FBS and 1% Penicillin-Streptomycin (Biowest) supplemented with Puromycin (2 μg/ml; Invivogen) for clonal selection. In order to isolate single cell clones for further validation and analysis, limiting dilution cloning in 96-well plates was performed. When the single clones reached confluency, HiBiT Lytic Assay (Promega) was performed in order to identify HiBiT positive clones. The clone selected for further studies was verified and validated using genotyping and HiBiT Blotting (Promega).
Selected clone of HEK293 NEK7-HiBiT cells was maintained in the DMEM-Glutamax medium supplemented with 10% of heat-inactivated FBS (Gibco) and 1% of Penicillin-Streptomycin Solution 100x (Biowest) at 37° C., 5% CO2 and subcultured every 2-3 days.
For Nano-Glo HiBiT Lytic Assay HEK293 NEK7-HiBiT cells were seeded at the density 2×10^3 cells in triplicates in the 40 μL of growth medium per single well on 384 well plate (Greiner Bio-One). Compounds or DMSO were added to treatment plates using Echo555 Liquid Handler and incubated at 37° C., 5% CO2 for 24 hours. After incubation 40 μL of Nano-Glo HiBiT Lytic Reagent (prepared according to the manufacturer protocol) were added to 40 μL of the cell culture medium present in each well. The plate content was briefly mixed (460 rpm) on an orbital shaker to ensure cell lysis. The plate was left at RT protected from light for another 10 min to stabilize the luminescent signal. The luminescence signal was measured using CLARIOstar Multimode Plate Reader. Focus and gain were adjusted to DMSO treated cells. The results were calculated as the NEK7-HiBiT % relative to the DMSO control of 3 technical replicates relative to the DMSO control.
HEK293 NEK7-HiBiT cells were treated with the compounds (conc. 0.1, 1 and 10 μM) or DMSO for 24 h. After incubation with compounds NEK7-HiBiT degradation was measured as a luminescence signal using CLARIOstar Multimode Plate reader.
Additionally, compounds reducing NEK7-HiBiT protein level by >=50% at 0.1 μM, were also identified.

Row | activation at 1 µM [1] [%] | EC50 [2] [nM] | Levels of NEK7-HiBiT Protein (as a % of DMSO control) (NEK7-HiBiT protein) | Normalized AlphaLISA ternary complex average signal at 1 μM molecule [1] | SMILES
1 | 20 to 80 | 100 to 316 | A (Levels of NEK7-HiBiT Protein ≤ 25%) | – | CC(=O)NC1CCC(c2ccc3c(c2)CN(C2CCC(=O)NC2=O)C3=O)NC1 (single isomer, unassigned) [33 Isomer 1, N-(6-(2-(2,6-dioxopiperidin-3-yl)-1-oxoisoindolin-5-yl)piperidin-3-yl)acetamide]
2 | 20 to 80 | 316 to 1000 | A (Levels of NEK7-HiBiT Protein ≤ 25%) | – | O=C1CCC(N2Cc3cc(C4CCCN4)ccc3C2=O)C(=O)N1 (stereo not drawn) [Compound 6, 3-(1-oxo-5-(pyrrolidin-2-yl)isoindolin-2-yl)piperidine-2,6-dione]
3 | > 80 | 100 to 316 | A (Levels of NEK7-HiBiT Protein ≤ 25%) | – | CCCCC1CCCC(c2ccc3c(c2)CN(C2CCC(=O)NC2=O)C3=O)N1 (mixture of isomers) [Compound 40, 3-(5-(6-butylpiperidin-2-yl)-1-oxoisoindolin-2-yl)piperidine-2,6-dione]
4 | < 10 | > 3160 | D (Levels of NEK7-HiBiT Protein ≥ 75%) | – | O=C1CCCC(N2Cc3cc(-c4ccccn4)ccc3C2=O)C(=O)N1 (stereo not drawn) [29(2), 3-(1-oxo-5-(pyridin-2-yl)isoindolin-2-yl)azepane-2,7-dione]
5 | – | > 3160 | D (Levels of NEK7-HiBiT Protein ≥ 75%) | D (Normalized activity < 10%) | O=C1CCC(N2Cc3cc(C4CCC(c5ccccc5)CO4)ccc3C2=O)C(=O)N1 (single isomer, unassigned) [74 Isomer 1, 3-(1-oxo-5-(5-phenyltetrahydro-2H-pyran-2-yl)isoindolin-2-yl)piperidine-2,6-dione]
6 | 10 to 20 | 316 to 1000 | D (Levels of NEK7-HiBiT Protein ≥ 75%) | – | O=C1CCC(N2Cc3cc(C4COCCO4)ccc3C2=O)C(=O)N1 (stereo not drawn) [Compound 68, 3-(5-(1,4-dioxan-2-yl)-1-oxoisoindolin-2-yl)piperidine-2,6-dione]
7 | < 10 | > 3160 | A (Levels of NEK7-HiBiT Protein ≤ 25%) | – | O=C1CCC(N2Cc3c(ccc(C4CCCCN4)c3F)C2=O)C(=O)N1 (stereo not drawn) [Compound 22, 3-(4-fluoro-1-oxo-5-(piperidin-2-yl)isoindolin-2-yl)piperidine-2,6-dione]

Row | SMILES | activation at 1 µM [1] [%] | EC50 [2] [nM] | Levels of NEK7-HiBiT Protein (as a % of DMSO control) (NEK7-HiBiT protein) | Normalized AlphaLISA ternary complex average signal at 1 μM molecule [1]
8 | O=C1CCC(N2Cc3cc([C@@H]4CCCCN4)ccc3C2=O)C(=O)N1 (stereo partly drawn) [Compound 10, 3-(1-oxo-5-((S)-piperidin-2-yl)isoindolin-2-yl)piperidine-2,6-dione] | 10 to 20 | 316 to 1000 | C (Levels of NEK7-HiBiT Protein > 50% and <75%) | –
9 | O=C1CCC(N2Cc3cc(C4CCCCCN4)ccc3C2=O)C(=O)N1 (stereo not drawn) [Compound 62, 3-(5-(azepan-2-yl)-1-oxoisoindolin-2-yl)piperidine-2,6-dione] | 20 to 80 | 316 to 1000 | B (Levels of NEK7-HiBiT Protein > 25% and ≤50%) | –
10 | CN1CCNC(c2ccc3c(c2)CN(C2CCC(=O)NC2=O)C3=O)C1 (stereo not drawn) [Compound 67, 3-(5-(4-methylpiperazin-2-yl)-1-oxoisoindolin-2-yl)piperidine-2,6-dione] | 10 to 20 | > 3160 | B (Levels of NEK7-HiBiT Protein > 25% and ≤50%) | –
11 | O=C1CCC(N2Cc3cc(N4CCCCN4)ccc3C2=O)C(=O)N1 (stereo not drawn) [Compound 58, 3-(1-oxo-5-(tetrahydropyridazin-1 (2H)-yl)isoindolin-2-yl)piperidine-2,6-dione] | 20 to 80 | 100 to 316 | C (Levels of NEK7-HiBiT Protein > 50% and <75%) | –
12 | O=C1CCC(N2Cc3cc(C4COCCN4)ccc3C2=O)C(=O)N1 (stereo not drawn) [Compound 61, 3-(5-(morpholin-3-yl)-1-oxoisoindolin-2-yl)piperidine-2,6-dione] | 10 to 20 | 100 to 316 | C (Levels of NEK7-HiBiT Protein > 50% and <75%) | –
